The target of the assay is T1, NFU1 (Homo sapiens, UniProt Q9UMS0).
T1 sequence (Q9UMS0 10-254): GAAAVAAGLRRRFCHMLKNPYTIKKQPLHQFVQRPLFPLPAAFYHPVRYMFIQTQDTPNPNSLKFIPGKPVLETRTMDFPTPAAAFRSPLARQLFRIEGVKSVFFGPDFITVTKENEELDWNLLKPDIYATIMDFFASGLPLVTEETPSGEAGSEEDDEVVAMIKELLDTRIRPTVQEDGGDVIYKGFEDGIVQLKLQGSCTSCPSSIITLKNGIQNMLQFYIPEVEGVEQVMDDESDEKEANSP
In words: 1H-15N HSQC NMR of cluster assembly on 15N-labelled apo NFU1. The assay is classed as binding. Conditions: cluster donor [2Fe-2S] C59Y BOLA3-GLRX5 at 1:1; 5 mM DTT; 5 mM GSH; anaerobic.

Experimental findings from publication PMC8125686, “Molecular Basis of Multiple Mitochondrial Dysfunctions Syndrome 2 Caused by CYS59TYR BOLA3 Mutation” (International Journal of Molecular Sciences, 2021) are described below.

With `[S]12[Fe]3[S]4[Fe]1[S]1[Fe]2[S]3[Fe]41` [[4Fe–4S]2+ cluster], the “amount of [4Fe-4S] NFU1 formed in the final mixture” value worked out at 25%.
